Results from publication PMC4533973, “Synthesis and Evaluation of Chloramphenicol Homodimers: Molecular Target, Antimicrobial Activity, and Toxicity against Human Cells” (PLoS ONE, 2015).

Experiments:
[1] = test system: 70S ribosomes from E. coli (23S rRNA); experiment: Crosslinking of CAM dimers to ribosomes upon 365 nm irradiation; assay type: binding; conditions: R*I complex, 365 nm light for 30 min, compound at 10×K i
Experimental: Specifically, a mixture of E. coli ribosomes together with either 4 or 5, each added to the incubation mixture at concentration equal to 10×K i, were irradiated for 30 min with 365 nm light. Following purification, the irradiation products were analyzed by primer extension. […] In contrast, compound 4 crosslinked to C2611, without raising any modification signal in the A2058-A2059 region. It should be mentioned that the concentrations used for compounds 4 and 5 in this series of experiments were much lower (<60 μM) than those of CAM utilized previously by Long & Porse. […]
Fig 5 CAM dimer crosslinking at the entrance to the exit tunnel, upon UV-irradiation. […] The irradiation products were analyzed by probing with DMS (panels A and B) or CMCT (panel C) and primer extension, before (lanes 3 and 6) or after discharging from excess CAM dimer (lanes 2 and 5). […]
Following formation of R*I complexes, the samples were irradiated at 365 nm, for 30 min, in a Vilber Lourmat UV Cabinet (VL-215.LC-30W) light source. […] Half of the sample was probed with DMS or CMCT, and then analyzed by primer extension as shown above, while the other half was extracted with phenol, phenol-chloroform (1:1), and chloroform, followed by ethanol precipitation to remove non-crosslinked agents. […]

[2] = test system: human peripheral blood cells; experiment: Toxicity assays in human peripheral blood cells; assay type: cell-based
Experimental: Fig 7 Toxicity assays in human peripheral blood cells. Peripheral blood was collected in EDTA-coated tubes from 5 healthy volunteers (age range: 25–30 years). Concentration was adjusted to 1.8×10^9 cells/L using RPMI-1640 medium containing 1% penicillin/streptomycin. Cells were cultured in triplicate in the presence or the absence of 30 or 60 μM CAM or compound 5, under a humidified 5% CO2 atmosphere for 5 days, at 37°C. Cultures were counted daily by a CELL-DYN 3700 Hematology Analyzer and values were expressed as a percentage of cells measured in controls.
Peripheral blood was collected in EDTA-coated tubes from 5 healthy volunteers (age range: 25–30 years). Cell concentration was adjusted to 5×10^8 cells/l using RPMI-1640 medium (GIBCO BRL) containing 1% penicillin/streptomycin. Cells were cultured in triplicate under a humidified 5% CO2 atmosphere for 5 days, at 37°C, in the absence (control cultures) or the presence of CAM or CAM dimers. Counting of cells was performed daily in a CELL-DYN 3700 Hematology Analyzer (Abbott, USA) and values were expressed as a percentage of cells measured in control cultures.

HS-Sultan cells = experiment: Toxicity assay in leukemic cell line (cell counting); assay type: cell-based, Human; conditions: daily cell counting
Experimental: (§1) Human leukemic cell lines, HS-Sultan (Burkitt’s lymphoma), Jurkat (T-cell acute lymphoblastic leukemia), and U937 (histiocytic lymphoma), were adjusted to 1×10^9 cells/l in RPMI-1640 medium supplemented with 10% fetal bovine serum and 1% penicillin/streptomycin. The cells were grown in triplicate in the absence (control cultures) or presence of CAM or CAM dimers for 4 days at 37°C, under a humidified 5% CO2 atmosphere. The medium was changed daily; CAM or CAM dimer addition was repeated after medium change. Aliquots were collected daily and counted in a CELL-DYN 3700 Hematology Analyzer. For cell necrosis and apoptosis assays, samples (10^6 cells) were collected and determined using the Annexin V-PE Apoptosis Detection Kit I (BD Pharmingen) for flow cytometry, according to the manufacturers’ instructions. Flow cytometry data were analyzed using the FlowJo flow cytometry analysis software. Necrotic and apoptotic cells were expressed as a percentage of total cells.
(§2) S4 Fig. Toxicity assays in Human leukemic cell lines. HS-Sultan, Jurkat, and U937 cell lines were adjusted to […] in RPMI-1640 medium containing 1% Penicillin/Streptomycin and 10% fetal bovine serum. […] Aliquots were collected daily and counted in a CELL-DYN 3700 Hematology Analyzer.

U937 cells = experiment: as above; assay type: cell-based, Human; conditions: daily cell counting
Experimental: as §1, §2

For `O=C(N[C@H](CO)[C@H](O)c1ccc([N+](=O)[O-])cc1)c1ccc(C(=O)N[C@H](CO)[C@H](O)c2ccc([N+](=O)[O-])cc2)cc1` [Compound 5, N^1,N^4-Bis ((1R,2R)-1,3-dihydroxy-1-(4-nitrophenyl)propan-2-yl)-terephthalamide], the “nucleoside(s) of 23S rRNA crosslinked” value [1] was “C2610, and less to nucleosides A2058 and A2059”, the “toxicity against other types of leukocytes” value [2] was “negligible” and the “time of peak toxicity on neutrophils” value ([2]; 120 h exposure of blood cells) was 48 h. For the same molecule, the toxicity on neutrophils ([2]; 120 h exposure of blood cells, 30 or 60 μM) was “mild and transient toxicity”, the “sensitivity of HS-Sultan cells” value (HS-Sultan cells) was “insensitive” and the “sensitivity of U937 cells” value (U937 cells) was “insensitive”.
